Values after ≈ are worked out from the molar mass of the structure shown. Numbered stars: 1 amine (or outer) side, 2 acyl side, 3 side chain; on linkers, the order of the positions; unused ones are H or OH. Side chains are listed from the residue outwards. Peptide text beside a SMILES is read from it. * marks the point of attachment. C20 diacid = O=C(O)CCCCCCCCCCCCCCCCCCC(=O)*; γGlu = O=C(O)[C@H](CCC(=O)[*:2])N[*:1]
Experiments:
[1] = Assay (IV) determination of solubility; type: physicochemical
Method: Assay (IV)—Determination of Solubility
The mimylin peptide was dissolved in water at ˜500 nmol/ml and mixed 1:1 with a series of buffers (100 mM glycylglycine pH 3.0, 100 mM glycylglycine pH 4.0, 100 mM glycylglycine pH 5.0, 100 mM bistrispropane pH 6.0, 100 mM bistrispropane pH 6.5, 100 mM bistrispropane pH 7.0, 100 mM bistrispropane pH 7.5, 100 mM bistrispropane pH 8.0).

[2] = molecular target: T1, rat calcitonin receptor (Rattus norvegicus, UniProt P32214); experiment: Assay (VIII) binding to the rat calcitonin receptor; details: membranes; read-out: rCT-R binding IC50
T1 construct: expressed in transfected cells; host or cells: BHK tk'ts 13 (transient, FuGENE 6)
T1 sequence (P32214 25-479 isoform P32214-2 limits assumed): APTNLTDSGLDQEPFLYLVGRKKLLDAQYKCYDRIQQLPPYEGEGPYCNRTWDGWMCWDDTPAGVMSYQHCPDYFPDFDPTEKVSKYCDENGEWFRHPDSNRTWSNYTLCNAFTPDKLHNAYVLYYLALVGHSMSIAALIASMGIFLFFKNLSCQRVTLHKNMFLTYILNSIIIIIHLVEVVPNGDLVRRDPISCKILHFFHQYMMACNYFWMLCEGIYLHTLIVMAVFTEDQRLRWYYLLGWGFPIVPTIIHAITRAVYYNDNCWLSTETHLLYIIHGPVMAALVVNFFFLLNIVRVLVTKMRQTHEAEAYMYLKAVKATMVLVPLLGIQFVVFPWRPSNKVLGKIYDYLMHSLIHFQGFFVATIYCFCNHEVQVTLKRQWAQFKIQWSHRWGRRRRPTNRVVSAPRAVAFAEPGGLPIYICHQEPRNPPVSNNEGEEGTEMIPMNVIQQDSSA
Summary of the method: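 Competition binding on membranes from BHK tk'ts 13 cells transiently transfected with rat calcitonin receptor, otherwise run as the human receptor assay. Plates washed in cold HBSS, lysed in 0.1 M NaOH/1% SDS and scintillation-counted. IC50 from one-site competition fit as affinity measure.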

Solubility ([1]; pH 3.0)	Solubility ([1]; pH 4.0)	Solubility ([1]; pH 5.0)	Solubility ([1]; pH 6.0)	Solubility ([1]; pH 6.5)	Solubility ([1]; pH 7.0)	Solubility ([1]; pH 7.5)	Solubility ([1]; pH 8.0)	IC50 [2]	solubility at 18 h ([1]; pH 5.0)	solubility at 18 h ([1]; pH 6.0)	solubility at 18 h ([1]; pH 6.5)	SMILES
≧200 μM	≧200 μM	≧200 μM	≧200 μM	≧200 μM	≧200 μM	≧200 μM	≧200 μM	0.042 nM	–	–	–	CC(=O)N[C@@H](C)C(=O)N[C@@H](CO)C(=O)N[C@@H](CCC(=O)O)C(=O)N[C@@H](CC(C)C)C(=O)N[C@@H](CO)C(=O)N[C@H](C(=O)N[C@@H](C)C(=O)N[C@@H](C)C(=O)N[C@@H](CC(C)C)C(=O)NCC(=O)N[C@@H](CCCNC(=N)N)C(=O)N[C@@H](CC(C)C)C(=O)N[C@@H](CO)C(=O)N[C@@H](C)C(=O)N[C@@H](CCCCNC(=O)CC[C@H](NC(=O)CCCCCCCCCCCCCCCCCCC(=O)O)C(=O)O)C(=O)N[C@@H](CC(C)C)C(=O)N[C@@H](Cc1cnc[nH]1)C(=O)N[C@@H](CCC(=O)O)C(=O)N[C@@H](CC(C)C)C(=O)N[C@@H](C)C(=O)N[C@H](C(=O)N[C@@H](CC(C)C)C(=O)N1CCC[C@H]1C(=O)N[C@@H](CCCNC(=N)N)C(=O)N[C@H](C(=O)N[C@@H](CCC(=O)O)C(=O)N[C@H](C(=O)NCC(=O)N[C@@H](CO)C(=O)NCC(=O)N[C@@H](CO)C(=O)N1CCC[C@H]1C(N)=O)[C@@H](C)O)[C@@H](C)O)[C@@H](C)O)[C@@H](C)O [compound 69, [N-terminal(acetyl), des1, 16K(C20 diacid-gGlu), 30S, 31G]mimylin] (Ac-ASELSTAALGRLSAK([γGlu-C20 diacid])LHELATLPRTETGSGSP-NH2)
≧200 μM	≧200 μM	≧200 μM	≧200 μM	≧200 μM	≧200 μM	≧200 μM	≧200 μM	0.071 nM	–	–	–	CC(=O)N[C@@H](C)C(=O)N[C@@H](CO)C(=O)N[C@@H](CCC(=O)O)C(=O)N[C@@H](CC(C)C)C(=O)N[C@@H](CO)C(=O)N[C@H](C(=O)N[C@@H](C)C(=O)N[C@@H](C)C(=O)N[C@@H](CC(C)C)C(=O)NCC(=O)N[C@@H](CCCNC(=N)N)C(=O)N[C@@H](CC(C)C)C(=O)N[C@@H](CO)C(=O)N[C@@H](C)C(=O)N[C@@H](CCC(=O)O)C(=O)N[C@@H](CC(C)C)C(=O)N[C@@H](Cc1cnc[nH]1)C(=O)N[C@@H](CCCCNC(=O)CC[C@H](NC(=O)CCCCCCCCCCCCCCCCCCC(=O)O)C(=O)O)C(=O)N[C@@H](CC(C)C)C(=O)N[C@@H](C)C(=O)N[C@H](C(=O)N[C@@H](CC(C)C)C(=O)N1CCC[C@H]1C(=O)N[C@@H](CCCNC(=N)N)C(=O)N[C@H](C(=O)N[C@@H](CCC(=O)O)C(=O)N[C@H](C(=O)NCC(=O)N[C@@H](CO)C(=O)NCC(=O)N[C@@H](CO)C(=O)N1CCC[C@H]1C(N)=O)[C@@H](C)O)[C@@H](C)O)[C@@H](C)O)[C@@H](C)O [compound 70, [N-terminal(acetyl), des1, 19K(C20 diacid-gGlu), 30S, 31G]mimylin] (Ac-ASELSTAALGRLSAELHK([γGlu-C20 diacid])LATLPRTETGSGSP-NH2)
≧200 μM	≧200 μM	≧200 μM	≧200 μM	≧200 μM	≧200 μM	≧200 μM	≧200 μM	0.085 nM	–	–	–	CC(C)C[C@H](NC(=O)[C@H](C)NC(=O)[C@H](C)NC(=O)[C@@H](NC(=O)[C@H](CO)NC(=O)[C@H](CC(C)C)NC(=O)[C@H](CCC(=O)O)NC(=O)[C@H](CO)NC(=O)[C@H](C)NC(=O)CC[C@H](NC(=O)CCCCCCCCCCCCCCCCCCC(=O)O)C(=O)O)[C@@H](C)O)C(=O)NCC(=O)N[C@@H](Cc1cnc[nH]1)C(=O)N[C@@H](CC(C)C)C(=O)N[C@@H](CO)C(=O)N[C@@H](C)C(=O)N[C@@H](CCC(=O)O)C(=O)N[C@@H](CC(C)C)C(=O)N[C@@H](Cc1cnc[nH]1)C(=O)N[C@@H](CCC(=O)O)C(=O)N[C@@H](CC(C)C)C(=O)N[C@@H](C)C(=O)N[C@H](C(=O)N[C@@H](CC(C)C)C(=O)N1CCC[C@H]1C(=O)N[C@@H](CCCNC(=N)N)C(=O)N[C@H](C(=O)N[C@@H](CCC(=O)O)C(=O)N[C@H](C(=O)NCC(=O)N[C@@H](CO)C(=O)NCC(=O)N[C@@H](CO)C(=O)N1CCC[C@H]1C(N)=O)[C@@H](C)O)[C@@H](C)O)[C@@H](C)O [compound 72, [N-terminal(C20 diacid-gGlu), des1, 12H, 30S, 31G]mimylin] ({C20 diacid-γGlu}-ASELSTAALGHLSAELHELATLPRTETGSGSP-NH2)
≧200 μM	≧200 μM	≧200 μM	≧200 μM	≧200 μM	≧200 μM	≧200 μM	≧200 μM	0.039 nM	–	–	–	CC(C)C[C@H](NC(=O)[C@H](C)NC(=O)[C@H](C)NC(=O)[C@@H](NC(=O)[C@H](CO)NC(=O)[C@H](CC(C)C)NC(=O)[C@H](CCC(=O)O)NC(=O)[C@H](CO)NC(=O)[C@H](C)NC(=O)CC[C@H](NC(=O)CCCCCCCCCCCCCCCCCCC(=O)O)C(=O)O)[C@@H](C)O)C(=O)NCC(=O)N[C@@H](CCCNC(=N)N)C(=O)N[C@@H](CC(C)C)C(=O)N[C@@H](CO)C(=O)N[C@@H](C)C(=O)N[C@@H](CCC(=O)O)C(=O)N[C@@H](CC(C)C)C(=O)N[C@@H](Cc1cnc[nH]1)C(=O)N[C@@H](CCC(=O)O)C(=O)N[C@@H](CC(C)C)C(=O)N[C@@H](C)C(=O)N[C@H](C(=O)N[C@@H](Cc1ccc(O)cc1)C(=O)N1CCC[C@H]1C(=O)N[C@@H](CCCNC(=N)N)C(=O)N[C@H](C(=O)N[C@@H](CCC(=O)O)C(=O)N[C@H](C(=O)NCC(=O)N[C@@H](CO)C(=O)NCC(=O)N[C@@H](C)C(=O)N1CCC[C@H]1C(N)=O)[C@@H](C)O)[C@@H](C)O)[C@@H](C)O [compound 81, [N-terminal(C20 diacid-gGlu), des1, 23Y, 30S, 31G, 32A]mimylin] ({C20 diacid-γGlu}-ASELSTAALGRLSAELHELATYPRTETGSGAP-NH2)
≧200 μM	≧200 μM	–	≧200 μM	≧200 μM	≧200 μM	≧200 μM	≧200 μM	0.069 nM	19 µM (≈ 72.9 µg/mL)	–	–	CC(C)C[C@H](NC(=O)[C@H](CCCNC(=N)N)NC(=O)CNC(=O)[C@H](CC(C)C)NC(=O)[C@@H](NC(=O)[C@H](C)NC(=O)[C@@H](NC(=O)[C@H](CO)NC(=O)[C@H](CC(C)C)NC(=O)[C@H](CCC(=O)O)NC(=O)[C@H](CO)NC(=O)[C@H](C)NC(=O)CC[C@H](NC(=O)CCCCCCCCCCCCCCCCCCC(=O)O)C(=O)O)[C@@H](C)O)[C@@H](C)O)C(=O)N[C@@H](CO)C(=O)N[C@@H](C)C(=O)N[C@@H](CCC(=O)O)C(=O)N[C@@H](CC(C)C)C(=O)N[C@@H](Cc1cnc[nH]1)C(=O)N[C@@H](CCC(=O)O)C(=O)N[C@@H](CC(C)C)C(=O)N[C@@H](CO)C(=O)N[C@H](C(=O)N[C@@H](Cc1ccc(O)cc1)C(=O)N1CCC[C@H]1C(=O)N[C@@H](CCCNC(=N)N)C(=O)N[C@H](C(=O)N[C@@H](CCC(=O)O)C(=O)N[C@H](C(=O)NCC(=O)N[C@@H](CO)C(=O)NCC(=O)N[C@@H](CO)C(=O)N[C@@H](Cc1ccc(O)cc1)C(N)=O)[C@@H](C)O)[C@@H](C)O)[C@@H](C)O [compound 99, [N-terminal(C20 diacid-gGlu), des1, 9T, 21S, 23Y, 30S, 31G, 33Y]mimylin] ({C20 diacid-γGlu}-ASELSTATLGRLSAELHELSTYPRTETGSGSY-NH2)
≧200 μM	–	–	–	–	≧200 μM	≧200 μM	≧200 μM	0.062 nM	1 µM (≈ 3.82 µg/mL)	63 µM (≈ 241 µg/mL)	180 µM (≈ 688 µg/mL)	CC(C)C[C@H](NC(=O)[C@H](CO)NC(=O)[C@H](C)NC(=O)[C@@H](NC(=O)[C@H](CO)NC(=O)[C@H](CC(C)C)NC(=O)[C@H](CCC(=O)O)NC(=O)[C@H](CO)NC(=O)[C@H](C)NC(=O)CC[C@H](NC(=O)CCCCCCCCCCCCCCCCCCC(=O)O)C(=O)O)[C@@H](C)O)C(=O)NCC(=O)N[C@@H](CCCNC(=N)N)C(=O)N[C@@H](CC(C)C)C(=O)N[C@@H](CO)C(=O)N[C@@H](C)C(=O)N[C@@H](CCC(=O)O)C(=O)N[C@@H](CC(C)C)C(=O)N[C@@H](Cc1cnc[nH]1)C(=O)N[C@@H](CCC(=O)O)C(=O)N[C@@H](CC(C)C)C(=O)N[C@@H](CO)C(=O)N[C@H](C(=O)N[C@@H](Cc1ccc(O)cc1)C(=O)N1CCC[C@H]1C(=O)N[C@@H](CCCNC(=N)N)C(=O)N[C@H](C(=O)N[C@@H](CCC(=O)O)C(=O)N[C@H](C(=O)NCC(=O)N[C@@H](CO)C(=O)NCC(=O)N[C@@H](CO)C(=O)N[C@@H](Cc1ccc(O)cc1)C(N)=O)[C@@H](C)O)[C@@H](C)O)[C@@H](C)O [compound 100, [N-terminal(C20 diacid-gGlu), des1, 9S, 21S, 23Y, 30S, 31G, 33Y]mimylin] ({C20 diacid-γGlu}-ASELSTASLGRLSAELHELSTYPRTETGSGSY-NH2)

Source: patent US9593149B2, “Amylin and calcitonin receptor agonist” (Novo Nordisk A/S, priority 2014, dated 2017)
